Source: patent publication US20170049843A1, “Hepatocyte Growth Factor Mimics as Therapeutic Agents” (WASHINGTON STATE UNIVERSITY, priority 2011, published 2017)
“And” between values parts separate entries of the source, which are not always exact repeats. Equal values may be shown once. Where a SMILES comes first, the peptide text is derived from it. [ ]: non-standard residue; d: D form. The star is where a group is joined. Nle = CCCC[C@H](N)C(=O)O; Hexanoyl = CCCCCC(=O)*; Ahx = NCCCCCC(=O)O

Tests used:
Type in all cases: cell-based, rat
c-Met receptor = assay: Spinogenesis after c-Met knock-down with shRNA; conditions: 10 ng/ml HGF or 10^−12 M analog
Source text: (§1) Neurons were transfected with mRFP-β-actin on day in vitro 6 (DIV6) using LipofectAMINE™ 2000 (Invitrogen) according to the manufacturer's protocol. This protocol yielded the desired 3-5% transfection efficiency thus enabling the visualization of individual neurons. Higher efficiencies obscured the dendritic arbor of individual neurons. Expression of fluorescently tagged actin allowed clear visualization of dendritic spines, as dendritic spines are enriched in actin. On DIV7 the cells were treated with vehicle (H20) or peptides (as described in the text) added to media. On DIV12 the neurons were fixed (4% paraformaldehyde, 3% sucrose, 60 mM PIPES, 25 mM HEPES, 5 mM EGTA, 1 mM MgCl2, pH 7.4) for 20 min at room temperature and mounted. Slides were dried for at least 20 hours at 4° C. and fluorescent images were obtained with Slidebook 4.2 Digital Microscopy Software driving an Olympus IX81 inverted confocal microscope with a 60× oil immersion lens, NA 1.4 and resolution 0.280 μm Dendritic spine density was measured on primary and secondary dendrites at a distance of at least 150 μm from the soma. Five 50 μm long segments of dendrite from at least 10 neurons per data point were analyzed for each data point reported. Each experiment was repeated at least three times using independent culture preparations. Dendrite length was determined using the National Institutes of Health's Image J 1.41o program (NIH, Bethesda, Md.) and the neurite tracing program Neuron J (Meijering, Jacob et al. 2004) Spines were manually counted.
A target sequence for c-Met was designed using RNAi central design program (see the website located at cancan.cshl.edu/). […]. The shRNA was transfected into cells using the lipofectamine method described above. Verification of receptor knockdown was done by creating a c-Met-6-Myc tagged gene product using the Gateway cloning system (Invitrogen). The Met protein coding sequence was cloned from rat whole brain cDNA using primers obtained from Integrated DNA Technologies, Inc. The amplified product was gel purified and a band corresponding to […] band excised and cloned into a PCAGGS-6-Myc destination vector (Gateway).
To irrefutably confirm that the AngIV analogues act via the HGF/c-met system an shRNA for c-Met was employed to knock-down the receptor. Dissociated hippocampal neurons were transfected with mRFP-β-actin and shMet RNA and receptor knock-down was allowed to take place for 48 hours prior to stimulating with 0.5 μg (per well) HGF (10 ng/ml), Dihexa or Nle1-AngIV (both at 10^−12 M). Longer exposure appeared to be detrimental or toxic to the neurons. Effective c-Met receptor knock-down was verified by transfecting human embryonic kidney (HEK) cells with (0.1 μg) 6-Myc-tagged c-Met, (0.1 μg)shMet or mRFP-β-actin alone. Successful knockdown was confirmed by immunoblotting for Myc tagged c-met using an anti-Myc antibody (FIG. 19).

CA1 hippocampal neurons = assay: Spinogenesis in organotypic hippocampal slice cultures (CA1 neurons); conditions: for spines per 50 μm dendrite length, CA1 neurons: 10-12 M, 2 day treatment, control 7; for mean spine numbers per 50 μm dendrite length, CA1 neurons: 10^−12 M Dihexa or 10 ng/ml HGF, 48 hours, control 6.1
Procedure: (§2) Hippocampi from P4 Sprague Dawley rats were cultured as previously described (Wayman, Impey et al. 2006). Briefly, 400 μm slices were cultured on (Milipore, Billerica, Mass.) for 3 days after which they were biolistically transfected with tomato fluorescent protein (TFP) using a Helios Gen Gun (BioRad, Hercules, Calif.), according to the manufacturer's protocol, to visualize dendritic arbors. Following a 24 hour recovery period slices were stimulated with vehicle (H2O), 1 pM Nle1-AngIV or Dihexa for 2 days. Slices were fixed and mounted. Hippocampal CA1 neuronal processes were imaged and measured as described above.
as §2, with “Gene” for “Gen”, “with” for “with vehicle (H2O),”

hippocampal neurons [1] = assay: Whole-cell recordings of mEPSCs in dissociated hippocampal neurons; parameters: mean mEPSC frequency: unit not given beside the values; conditions: 5 days
hippocampal neurons [2] = assay: Spinogenesis in mRFP-β-actin transfected dissociated hippocampal neurons; conditions: 5 days; for spine numbers per 50 μm dendrite length: biologically active doses, printed as 10^−13 M, control 17.4
Procedure: Hippocampal neurons ([…] cells per square cm) were cultured from P1 Sprague Dawley rats on plates coated with poly-L-lysine from Sigma (St. Louis, Mo.; molecular weight 300,000). Hippocampal neurons were maintained in Neurobasal A media from Invitrogen (Carlsbad, Calif.) supplemented with B27 from Invitrogen, 0.5 mM L-glutamine, and […] cytosine-D-arabinofuranoside from Sigma added at 2 days in vitro. Hippocampal neurons were then cultured a further 3-7 days, at which time they were either transfected or treated with various pharmacological reagents as described in (Wayman, Davare et al. 2008).
as §1
Hippocampal neurons (2×10^5 cells per square centimeter) were cultured from P1-2 Sprague Dawley rats on plates coated with poly-L-lysine from Sigma (St. Louis, Mo.; molecular weight 300,000). Hippocampal neurons were maintained in Neurobasal A media from Invitrogen (Carlsbad, Calif.) supplemented with B27 from Invitrogen, 0.5 mM L-glutamine, and […] cytosine-D-arabinofuranoside from Sigma added at 2 days in vitro. Hippocampal neurons were then cultured a further 3-7 days, at which time they were either transfected or treated with various pharmacological reagents as described in the text or figure legends.

[3] = neurons transfected with mRFP-β-actin alone, 48 hours, control 13.2
[4] = neurons transfected with mRFP-β-actin and shMet, control 13.5
[5] = 10^−12 M Dihexa or 10 ng/ml HGF, control 3.55±0.60
[6] = Hinge 10^−12 M, HGF 10 ng/ml, Dihexa 10^−12 M, alone or combined, vehicle 5.31±0.35

Row | Molecule | mean spine numbers per 50 μm dendrite length (c-Met receptor; [3]) | mean spine numbers per 50 μm dendrite length (c-Met receptor; [4]) | spines per 50 μm dendrite length, CA1 neurons (CA1 hippocampal neurons) | mean spine numbers per 50 μm dendrite length, CA1 neurons (CA1 hippocampal neurons) | mean mEPSC frequency (hippocampal neurons [1]; [5]) | mean mEPSC frequency (hippocampal neurons [1]; [6]) | spine numbers per 50 μm dendrite length (hippocampal neurons [2]) | mean frequency of AMPA-mediated mEPSCs (hippocampal neurons [1]; 10-12 M, vehicle 3.06±0.23 Hz) | mean spine numbers per 50 μm dendrite length (hippocampal neurons [2]; HGF 5 ng/ml) | mean spine numbers per 50 μm dendrite length (hippocampal neurons [2]; HGF 10 ng/ml) | mean spine numbers per 50 μm dendrite length (hippocampal neurons [2]; HGF 20 ng/ml)
1 | CCCCCC(=O)N[C@@H](Cc1ccc(O)cc1)C(=O)N[C@H](C(=O)NCCCCCC(N)=O)[C@@H](C)CC [Dihexa, N-hexanoic-Tyr-Ile-(6)-aminohexanoic amide] (Hexanoyl-Tyr-Ile-[Ahx]-NH2) | 21.8 | 12.0 | 11 spines per 50 μm dendrite length | 15.0 | 6.75±0.99 | 8.25±0.56 | 26.4 |  |  |  | 
2 | CCCC[C@H](N)C(=O)N[C@@H](Cc1ccc(O)cc1)C(=O)N[C@H](C(=O)N[C@@H](Cc1c[nH]cn1)C(=O)N1CCC[C@H]1C(=O)N[C@@H](Cc1ccccc1)C(=O)O)[C@@H](C)CC [Nle1-AngIV, reference compound] (H-[Nle]YIHPF-OH; N-terminus and C-terminus assumed) | 20.0 | 12.1 | 11 spines per 50 μm dendrite length |  |  |  | 29.8 | 5.27±0.43 Hz |  |  | 
3 | HGF: recombinant hepatocyte growth factor (R&D Systems), ligand of c-Met | 20.6 | 12.4 |  | 18.5 | 7.09±0.53 | 9.66±0.20 |  |  | 24.7 | 27.5 and 33 and 29.3 | 27.0
